Experimental data as given in patent publication US20140341922A1, “Method for Overcoming Tolerance to Targeted Anti-Cancer Agent” (SUN R&DB Foundation, priority 2011, published 2014).

Key:
[1] = tested on: LN686, FADU, and OSC19 cells; test: Cell counting in 3D-mimic 2D culture (PCP or UAP); type: cell-based, human
Description: Cells were cultured in 96-well poly(poly-2-hydroxyethyl methacrylate [HEMA])-coated plates (PCPs) or ultra-low attached plates (UAPs). Control IgG1 (25 μg/ml), cixutumumab (25 μg/ml), PP2 (10 μM), and an integrin β3 neutralizing antibody B3A (10 μg/ml) were diluted in culture media containing 10% FBS or IGF-1 and treated alone or in combination. To examine the effect on cancer cell proliferation, a 3-(4,5-dimethylthiazol-2-yl)-2,5-diphenyltetrazolium bromide (MTT) or 3-(4,5-dimethylthiazol-2-yl)-5-(3-carboxymethoxyphenyl)-2-(4-sulfophenyl)-2H-tetrazolium (MTS) assay was performed, and to evaluate the effect on anchorage-independent colony formation, a soft agar colony formation assay was performed according to a method in our previous report (Morgillo et al., 2006).
The PCPs were prepared according to a previously reported method (Fukazawa et al., 1995). In brief, tissue culture plates were collated twice with poly-(HEMA) (10 mg/ml in 95% ethanol) at 37° C. and then washed with phosphate-buffered saline (PBS) several times.
Since cell growth rates could be different under each set of culture conditions, the present inventor counted the cells at distinct culture periods and depicted the results in FIG. 6. The values were represented as mean±standard deviation (SD), and a statistical significance was evaluated using two-sided Student t test (*P<0.05; **P<0.01).

[2] = tested on: IGF-1R, EGFR, Src, Akt, mTOR phosphorylation; test: Western blot of IGF-1R, EGFR, Src, Akt signaling after cixutumumab; type: cell-based, human
Description: Preparation of total cell lysates, Western blot analysis, and immunoprecipitation were performed according to methods described in our previous report (Morgillo et al., 2006).
Total cell lysates were immunoprecipitated with antibodies against integrin β3, integrin β1, or IgG. The precipitates with protein A agarose were resolved by sodium dodecyl sulfate-polyacrylamide gel electrophoresis (SDS-PAGE) and transferred to a polyvinylidene difluoride (PVDF) membrane. Western blot analysis was performed using specific Abs described as follows, and antigen-antibody complexes were visualized using enhanced chemiluminescence plus kits (Amersham Biosciences, Piscataway, N.J.).
The present inventors investigated the mechanisms involved in the resistance to cixutumumab treatment in HNSCC and NSCLC cells. cixutumumab resistant (LN686, FADU, 226B, 226Br, H596, and H460) or -sensitivity (UMSCC38, OSC19, H1299, and A549m) lines grown in TCP, PCP, UAP, or soft agar were untreated or treated with 25 μg/ml of cixutumumab for 6 h, and then were stimulated with IGF-1 for 30 min. Expression of several proteins were analyzed by Western blot analysis.
Cixutumumab-resistant (LN686, FADU, 226B, 226Br, H596, and H460) or -sensitive (UMSCC38, OSC19, H1299, and A549m) cell lines grown in PCP were untreated or treated with 25 μg/ml of cixutumumab for 7 days, and then were stimulated with 10% FBS for 30 min. Expression of several proteins were analyzed by western blot analysis.
Because cross-talk between EGFR and IGF-1R signalings have been proposed as a major mechanism of a resistance to TKIs of IGF-1R and EGFR (Buck et al., 2008; Morgillo et al., 2006), the present inventors next examined whether cixutumumab treatment induces activation of EGFR and Akt phosphorylation. After cixutumumab-resistant (LN686, FADU, 226B, 226Br, H596, and H460) or -sensitive (UMSCC38, OSC19, H1299, and A549m) cell lines grown in PCPs were treated with cixutumumab, 10% FBS was treated for 30 min. Several phosphorylated proteins and actin were analyzed by western blot analysis. In addition, densitometric analysis was performed to quantify the expression of the proteins for comparisons between cixutumumab-treated and control cells treated with vehicle.
The LN686 cells grown in PCP were treated with cixutumumab (25 μg/ml) for indicated times prior to stimulation with 10% FBS (FIGS. 14 and 15) or IGF-1 (100 ng/ml) (FIGS. 16 and 17) in the presence or absence of anti-human IGF-1 neutralizing monoclonal antibody (αIGF-1) (FIGS. 15 and 16) for indicated times (FIG. 16) or for 30 min (FIGS. 14, 15, and 17). Immunoprecipitation with whole proteins or integrin β3 antibodies was performed on the presented proteins, and expression of the proteins was analyzed by western blot analysis.
In addition, LN686 cells grown in PCP were treated with cixutumumab (25 μg/ml) for 7 days in the absence of FBS. The results obtained by analyzing p-IGF-1R (Y1131), IGF-1R, p-Src (Y416), Src, p-EGFR (Y845), p-EGFR (Y1068), EGFR, p-Akt (S473), and Akt using western blot analysis. LN686 cells stimulated with 10% serum for 30 min were included as a control.

“cixutumumab: humanized mAb targeting IGF-1R, provided by ImClone Systems” was tested, and the “growth rates vs control cells” value ([1]; LN686 and FADU cells) was “no difference”, the “growth rates vs control cells” value ([1]; OSC19 cells) was “significantly slower growth rates” and the “IGF-1-induced IGF-1R and Akt phosphorylation, and total IGF-1R expression” value ([2]; 25 μg/mL for 6 h, LN686 and OSC19 cells in TCPs, PCPs, UAPs, soft agar) was “effectively suppressed”. The “phosphorylation of Akt and downstream effectors mTOR, p70S6K, S6” value ([2]; LN686 (cixutumumab-resistant)) was “not to inhibit or to even increase”, the “time IGF-1R remained dephosphorylated” value ([2]; LN686 in PCP, 25 μg/ml, no change in IGF-1R level) was 3 h and the “levels of p-IGF-1R, p-EGFR (Y845), p-Src (Y416), and p-Akt (S473)” value ([2]; LN686 in PCP, 30 min pretreatment, 10% FBS stimulation) was “decreased”. For the same substance, the “phosphorylation of Src, FAK, EGFR (Y845), Akt, mTOR” value ([2]; LN686 in PCP, one hour treatment, 10% FBS stimulation) was “rapidly rephosphorylated”, the “phosphorylation of Akt and downstream effectors mTOR, p70S6K, S6” value ([2]; OSC19 (cixutumumab-sensitive)) was “inhibited” and the “EGFR, Src, or Akt phosphorylation” value ([2]; cixutumumab alone, absence of IGF-1 stimulation, LN686) was “failed to induce”. The “phosphorylation of EGFR at Src-specific site (Y845) and of Src (Y416)” value ([2]; cixutumumab-resistant lines in PCPs, 7 days, 10% FBS 30 min) was “increased” and the “phosphorylation of EGFR at Tyr1068” value ([2]; drug-resistant lines in PCPs, 7 days, 10% FBS 30 min) was “increased”.
